# Paper doi:10.1101/2025.08.06.669005v1 (bioRxiv, 2025)
# Starred links: 1 amine or outer side, 2 acyl side, 3 side chain; linkers in the order of their positions; H or OH if unused. Positions of bridges follow the written chain, without caps; N, C: chain ends. Non-standard residues stand in square brackets, D forms with d. Residues, ends and D or L forms follow the SMILES beside them. Chains are numbered I, II in the order given. X1 = O=C(O)C[C@@H](C(=O)[*:2])N(c1ccc([N+](=O)[O-])c2nonc12)[*:1]; Nle = CCCC[C@H](N)C(=O)O; Aib = CC(C)(N)C(=O)O
# Tests used:
# MSC-sEVs = test: sEV binding of 2 in solution in the presence of heparin; conditions: heparin 100 or 500 µg/mL; n = 3
# HeLa cells [1] = test: Membrane perturbation assay; assay type: cell-based; conditions: PI 3.5 µM, 30 min, 37 °C, CLSM, n = 37–65 cells
# PANC-1 cells [2] = test: Membrane perturbation assay; assay type: cell-based; conditions: PI 3.5 µM, 30 min, 37 °C, CLSM, n = 28–58 cells
# cancer cells = test: sEV drug-loading system with a hydrophobic compound; assay type: cell-based; conditions: compound loaded onto sEVs; data not shown
# ζ-potential measurement = assay type: physicochemical; conditions: non- and DiD-labeled MSC-sEVs; Zetasizer Nano ZS, 25 °C; n = 5
# [3] = tested on: sEV-mimicking liposomes (POPC:cholesterol:POPS = 75:15:10 mol%); test: Peptide binding to sEV-mimicking liposomes; conditions: ratio of Kd values for sEV-mimicking liposomes
# HeLa cells [4] = test: Cellular uptake by CLSM; assay type: cell-based; conditions: 2 at 1 µM alone, 37 °C, more than 1 h
# PANC-1 cells [5] = test: Cellular uptake by CLSM; assay type: cell-based; conditions: 2 at 1 µM alone, 37 °C, more than 1 h
# sEVs = conditions: previous data; cited from earlier work
# EVs = conditions: placed in cultured media without separation steps; cited from earlier work
Compound,ratio of the dead cells stained by PI (HeLa cells [1]),ratio of the dead cells stained by PI (PANC-1 cells [2]),further results
Heparin,–,–,fluorescence intensity of NBD of 2 in the presence of MSC-sEVs in solution (MSC-sEVs): did not influence
CO [MeOH],96.5%,97.3%,–
biotin-LSQETFZ’DLWKLLZEN-NH2 (sidechain bridge or staple) [Peptide 9],6.5%,3.3%,–
biotin-IWIAQELRRIGDEFNZYYAZR-NH2 (sidechain bridge or staple) [Peptide 10],4.5%,7.1%,–
CC[C@@]1(O)C(=O)OCc2c1cc1n(c2=O)Cc2cc3ccccc3nc2-1 [camptothecin],–,–,performance of the sEV drug-loading system (cancer cells): did not work effectively
DKBLLKXLNKBTDBLSKX-GSGS-C-NH2 (disulfide) [2′],–,–,change of ζ-potential of sEVs in the presence of the peptide (ζ-potential measurement): slight increase in ζ-potential
I: H-[X1]K[Aib]LLK[Nle]LNK[Aib]TD[Aib]LSK[Nle]GSGSC-NH2 / II: H-[X1]K[Aib]LLK[Nle]LNK[Aib]TD[Aib]LSK[Nle]GSGSC-NH2 (disulfide I:23-II:23) [Peptide 2],–,–,affinity relative to that of 1 [3]: 15.7 fold; NBD signals in cells in the absence of DiD-MSC-sEVs (uptake of peptide alone) (HeLa cells [4]): negligible; NBD signals in cells in the absence of DiD-MSC-sEVs (uptake of peptide alone) (PANC-1 cells [5]): negligible
biotin-DKBLLKXLNKBTDBLSKX-GSGS-C-NH2 | biotin-DKBLLKXLNKBTDBLSKX-GSGS-C-NH2 (disulfide) [Peptide 8],0.0%,1.9%,–
CCCC[C@H](NC(=O)[C@H](CCCCN)NC(=O)[C@H](CO)NC(=O)[C@H](CC(C)C)NC(=O)C(C)(C)NC(=O)[C@H](CC(=O)O)NC(=O)[C@@H](NC(=O)C(C)(C)NC(=O)[C@H](CCCCN)NC(=O)[C@H](CC(N)=O)NC(=O)[C@H](CC(C)C)NC(=O)[C@H](CCCC)NC(=O)[C@H](CCCCN)NC(=O)[C@H](CC(C)C)NC(=O)[C@H](CC(C)C)NC(=O)C(C)(C)NC(=O)[C@H](CCCCN)NC(=O)[C@H](CC(=O)O)Nc1ccc([N+](=O)[O-])c2nonc12)[C@@H](C)O)C(=O)NCC(=O)N[C@@H](CO)C(=O)NCC(=O)N[C@@H](CO)C(=O)N[C@@H](CCCCN)C(N)=O [Peptide 1] (HELM PEPTIDE1{[O=C(O)C[C@H](Nc1ccc([N+](=O)[O-])c2nonc12)C(=O)[*:2]].K.[Aib].L.L.K.[Nle].L.N.K.[Aib].T.D.[Aib].L.S.K.[Nle].G.S.G.S.K.[am]}$$$$V2.0),–,–,"amount of peptide bound at the plateau level (sEVs): 1,361 peptides/vesicle; time to selective binding to EVs (EVs): ≤ 5 min"
